Assay results taken from patent publication US9845296B2 (dated 2017).

melting point [°C]	Structure (SMILES)
135 to 137	CN(C)c1cc2[nH]c(C3CCCCC3)nc2cc1N
183 to 185	CN(C)c1cc2[nH]c(C3CCCCC3)nc2cc1NC(=O)c1ccc(OC(F)F)cc1
196 to 197	CN(C)c1cc2[nH]c(C3CCCCC3)nc2cc1NC(=O)c1ccc(F)cc1
173 to 174	COc1cccc(C(=O)Nc2cc3nc(C4CCCCC4)[nH]c3cc2N(C)C)c1OC
